The record followed here is US20070203247A1, “E[…] REGIMENS” (priority 2006, published 2007).

Like-named read-outs stand apart in the source and are kept apart here.

For the test, the system named is patient experiencing an allergic emergency (anaphylaxis). As to conditions: no amelioration after approx. 5 minutes, same device, within about five minutes after second dose. On the procedure: Administration of a first and second injectable dosage form comprising an epinephrine solution for the treatment of anaphylaxis
A patient weighing approximately 15 Kg experiencing an allergic emergency whereupon a caretaker initiates treatment at the onset of shortness of breath by administering to the patient an auto-injection of a first dose of an epinephrine solution comprising 0.1 mg of epinephrine intramuscularly.
A patient weighing approximately 25 Kg experiencing an allergic emergency initiates treatment at the onset of shortness of breath by self administering a manual injection of a first dose of an epinephrine solution comprising 0.125 mg of epinephrine intramuscularly.
A patient weighing approximately 90 Kg experiencing an allergic emergency initiates treatment at the onset of shortness of breath by self administering an auto-injection of a first dose of an epinephrine solution comprising 0.6 mg of epinephrine subcutaneously.
A patient weighing approximately 110 Kg experiencing an allergic emergency initiates treatment at the onset of shortness of breath by self administering an auto-injection of a first dose of an epinephrine solution comprising 0.75 mg of epinephrine intramuscularly.

With `CNC[C@H](O)c1ccc(O)c(O)c1` [epinephrine], the “patient's symptoms of anaphylaxis after the second injectable dose” value reads like this: (Example 1: patient approx. 15 Kg, first dose 0.1 mg auto-injection intramuscularly, second dose 0.15 mg manual intramuscularly) “symptoms of anaphylaxis are relieved or are at an acceptable level for transporting the patient to a physician”; (Example 2: patient approx. 25 Kg, first dose 0.125 mg manual intramuscularly, second dose 0.125 mg manual intramuscularly) “symptoms of anaphylaxis are relieved or are at an acceptable level for transporting the patient to a physician”; (Example 3: patient approx. 90 Kg, first dose 0.6 mg auto-injection subcutaneously, second dose 0.75 mg manual intramuscularly) “symptoms of anaphylaxis are relieved or are at an acceptable level for transporting the patient to a physician”; (Example 4: patient approx. 110 Kg, first dose 0.75 mg auto-injection intramuscularly, second dose 1.0 mg auto-injector intramuscularly) “symptoms of anaphylaxis are relieved or are at an acceptable level for transporting the patient to a physician”.
